The results in this text go back to ChEMBL document CHEMBL2086246, “Synthesis and optimization of substituted furo[2,3-d]-pyrimidin-4-amines and 7H-pyrrolo[2,3-d]pyrimidin-4-amines as ACK1 inhibitors” (Bioorg Med Chem Lett, 2012).

Calls of active or inactive are those of the source. The calls are words filed in the database; no cut-off is given here.

The target of data set [1] is T1, Activated CDC42 kinase 1 (Homo sapiens, UniProt Q07912). In words: Inhibition of N-terminal His6-tagged ACK1 expressed in baculovirus infected Hi5 cells assessed as inhibition of autophosphorylation after 2 hrs by ELISA. Also noted: species or system BTI-TN-5B1-4. (ELISA stands for enzyme-linked immunosorbent assay.)
Target sequence in this assay (Q07912 whole entry): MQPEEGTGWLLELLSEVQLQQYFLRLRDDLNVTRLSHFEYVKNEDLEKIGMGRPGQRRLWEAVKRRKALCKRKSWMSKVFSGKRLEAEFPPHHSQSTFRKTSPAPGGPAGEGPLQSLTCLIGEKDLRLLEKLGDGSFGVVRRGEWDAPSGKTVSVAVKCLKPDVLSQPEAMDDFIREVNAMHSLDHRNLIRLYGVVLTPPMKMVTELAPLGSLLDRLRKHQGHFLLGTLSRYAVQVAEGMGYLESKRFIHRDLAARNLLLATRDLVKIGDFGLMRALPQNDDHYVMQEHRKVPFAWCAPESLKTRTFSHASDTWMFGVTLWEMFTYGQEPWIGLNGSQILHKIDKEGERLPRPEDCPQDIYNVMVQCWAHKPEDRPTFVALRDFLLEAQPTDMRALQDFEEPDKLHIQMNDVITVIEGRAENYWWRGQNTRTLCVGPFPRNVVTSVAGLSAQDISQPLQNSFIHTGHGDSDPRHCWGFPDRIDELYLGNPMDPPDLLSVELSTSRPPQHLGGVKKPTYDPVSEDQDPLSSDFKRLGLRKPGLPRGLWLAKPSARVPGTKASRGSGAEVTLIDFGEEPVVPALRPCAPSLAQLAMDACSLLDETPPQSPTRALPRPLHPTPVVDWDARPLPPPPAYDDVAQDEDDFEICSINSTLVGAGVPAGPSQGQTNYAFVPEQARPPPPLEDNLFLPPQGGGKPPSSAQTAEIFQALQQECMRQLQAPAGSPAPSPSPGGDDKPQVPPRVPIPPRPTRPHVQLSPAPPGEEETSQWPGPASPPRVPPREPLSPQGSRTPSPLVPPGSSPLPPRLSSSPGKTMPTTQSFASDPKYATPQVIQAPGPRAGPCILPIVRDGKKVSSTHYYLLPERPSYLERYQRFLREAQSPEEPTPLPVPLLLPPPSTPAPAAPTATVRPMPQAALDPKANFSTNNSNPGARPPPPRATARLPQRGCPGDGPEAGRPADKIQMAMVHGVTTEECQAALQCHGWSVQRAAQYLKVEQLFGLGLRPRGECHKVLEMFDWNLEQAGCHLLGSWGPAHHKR
The target in data set [2] is Activated CDC42 kinase 1 (Mus musculus, UniProt O54967). Description: Inhibition of ACK1 in mouse C8 cells assessed as decrease in cell viability after 20 to 24 hrs. The data set is classed as cell-based.
Data set [3] concerns the target T1, Activated CDC42 kinase 1. Description: Inhibition of ACK1.
Target sequence in this assay (Q07912 whole entry): as above
Data set [4] deals with T1, Activated CDC42 kinase 1. Description: Reversible inhibition of ACK1.
Target sequence in this assay (Q07912 whole entry, looked up): as the sequence (Q07912 whole entry) above
Data set [5] has as its target T1, Activated CDC42 kinase 1. Description: Competitive inhibition of ACK1 using ATP.
Target sequence in this assay (Q07912 whole entry, looked up): as the sequence (Q07912 whole entry) above
Data set [6] is described as follows: Volume of distribution at steady state in Sprague-Dawley rat at 1 mg/kg, iv. The data set is classed as ADME, organism-based. Details: dose 1 mg/kg, route intravenous. As to conditions: in vivo, read-out: Vdss.
Data set [7] can be described thus: Drug metabolism in rat liver S9 fraction assessed as dithiolane ring oxidation. It counts as ADME, subcellular.
Data set [8] in a line: Mean residence time in Sprague-Dawley rat at 1 mg/kg, iv. It counts as ADME, organism-based. Details: dose 1 mg/kg, route intravenous. As to conditions: in vivo.
A short description of data set [9]: Clearance in Sprague-Dawley rat at 1 mg/kg, iv. Details: dose 1 mg/kg, route intravenous. The data set is classed as ADME, organism-based. As to conditions: in vivo.
Data set [10] in a line: Drug metabolism in rat liver S9 fraction assessed as dimethylamino oxidation. The data set is classed as ADME, subcellular.
The next data set addresses Angiopoietin-1 receptor (Homo sapiens, UniProt Q02763). In words: Inhibition of TIE2.
For data set [11], the target named is Vascular endothelial growth factor receptor 2 (Homo sapiens, UniProt P35968). Description: Inhibition of KDR.
Data set [12] deals with T2, Tyrosine-protein kinase JAK3 (Homo sapiens, UniProt P52333).
T2 sequence (P52333 whole entry): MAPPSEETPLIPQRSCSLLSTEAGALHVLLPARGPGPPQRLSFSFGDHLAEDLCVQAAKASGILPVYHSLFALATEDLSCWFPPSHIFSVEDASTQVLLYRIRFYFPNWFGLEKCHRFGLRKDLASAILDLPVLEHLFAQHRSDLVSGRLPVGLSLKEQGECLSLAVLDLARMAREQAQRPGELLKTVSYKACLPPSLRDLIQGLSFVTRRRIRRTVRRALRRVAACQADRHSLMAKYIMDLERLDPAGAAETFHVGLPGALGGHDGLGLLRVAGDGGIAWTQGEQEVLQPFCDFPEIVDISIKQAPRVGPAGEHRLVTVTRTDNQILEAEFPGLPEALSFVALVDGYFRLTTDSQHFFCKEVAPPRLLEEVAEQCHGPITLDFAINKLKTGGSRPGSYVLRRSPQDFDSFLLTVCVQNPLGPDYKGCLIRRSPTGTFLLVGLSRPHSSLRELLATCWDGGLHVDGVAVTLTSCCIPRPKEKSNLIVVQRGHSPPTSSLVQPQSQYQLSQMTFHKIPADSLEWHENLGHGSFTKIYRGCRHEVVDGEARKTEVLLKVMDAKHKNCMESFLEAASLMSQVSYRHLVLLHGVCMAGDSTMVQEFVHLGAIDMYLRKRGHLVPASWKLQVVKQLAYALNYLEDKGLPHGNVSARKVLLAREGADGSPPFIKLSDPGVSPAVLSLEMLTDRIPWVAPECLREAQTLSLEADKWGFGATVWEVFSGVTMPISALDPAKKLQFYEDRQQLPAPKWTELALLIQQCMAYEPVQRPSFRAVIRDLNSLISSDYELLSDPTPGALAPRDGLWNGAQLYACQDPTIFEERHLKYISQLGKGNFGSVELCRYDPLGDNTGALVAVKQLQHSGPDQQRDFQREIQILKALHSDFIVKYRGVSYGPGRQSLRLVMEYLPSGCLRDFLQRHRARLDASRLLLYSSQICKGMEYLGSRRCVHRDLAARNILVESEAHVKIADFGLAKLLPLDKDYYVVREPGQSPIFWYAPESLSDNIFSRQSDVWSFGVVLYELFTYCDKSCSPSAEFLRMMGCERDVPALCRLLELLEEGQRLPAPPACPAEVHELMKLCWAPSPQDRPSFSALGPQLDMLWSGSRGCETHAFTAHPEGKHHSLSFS
In words: Inhibition of JAK3.

The target in data set [13] is Tyrosine-protein kinase Lck (Homo sapiens, UniProt P06239). Description: Inhibition of LCK.
Sequence of Tyrosine-protein kinase Lck (P06239 whole entry): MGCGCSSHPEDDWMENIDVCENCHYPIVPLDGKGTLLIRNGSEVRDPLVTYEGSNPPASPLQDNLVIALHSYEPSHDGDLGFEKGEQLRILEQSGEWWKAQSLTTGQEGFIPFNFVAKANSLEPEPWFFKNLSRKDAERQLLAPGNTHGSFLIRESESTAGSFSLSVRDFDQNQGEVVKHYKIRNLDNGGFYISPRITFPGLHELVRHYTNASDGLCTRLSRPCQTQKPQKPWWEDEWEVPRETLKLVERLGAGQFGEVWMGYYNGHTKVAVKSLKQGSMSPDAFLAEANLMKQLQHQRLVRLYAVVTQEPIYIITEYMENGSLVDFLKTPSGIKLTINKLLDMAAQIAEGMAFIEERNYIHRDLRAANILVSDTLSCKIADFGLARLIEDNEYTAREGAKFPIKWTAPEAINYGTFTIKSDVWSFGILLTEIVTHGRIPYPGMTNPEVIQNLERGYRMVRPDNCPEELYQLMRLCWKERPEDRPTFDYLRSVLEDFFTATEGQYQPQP

Sequence of Angiopoietin-1 receptor (Q02763 whole entry): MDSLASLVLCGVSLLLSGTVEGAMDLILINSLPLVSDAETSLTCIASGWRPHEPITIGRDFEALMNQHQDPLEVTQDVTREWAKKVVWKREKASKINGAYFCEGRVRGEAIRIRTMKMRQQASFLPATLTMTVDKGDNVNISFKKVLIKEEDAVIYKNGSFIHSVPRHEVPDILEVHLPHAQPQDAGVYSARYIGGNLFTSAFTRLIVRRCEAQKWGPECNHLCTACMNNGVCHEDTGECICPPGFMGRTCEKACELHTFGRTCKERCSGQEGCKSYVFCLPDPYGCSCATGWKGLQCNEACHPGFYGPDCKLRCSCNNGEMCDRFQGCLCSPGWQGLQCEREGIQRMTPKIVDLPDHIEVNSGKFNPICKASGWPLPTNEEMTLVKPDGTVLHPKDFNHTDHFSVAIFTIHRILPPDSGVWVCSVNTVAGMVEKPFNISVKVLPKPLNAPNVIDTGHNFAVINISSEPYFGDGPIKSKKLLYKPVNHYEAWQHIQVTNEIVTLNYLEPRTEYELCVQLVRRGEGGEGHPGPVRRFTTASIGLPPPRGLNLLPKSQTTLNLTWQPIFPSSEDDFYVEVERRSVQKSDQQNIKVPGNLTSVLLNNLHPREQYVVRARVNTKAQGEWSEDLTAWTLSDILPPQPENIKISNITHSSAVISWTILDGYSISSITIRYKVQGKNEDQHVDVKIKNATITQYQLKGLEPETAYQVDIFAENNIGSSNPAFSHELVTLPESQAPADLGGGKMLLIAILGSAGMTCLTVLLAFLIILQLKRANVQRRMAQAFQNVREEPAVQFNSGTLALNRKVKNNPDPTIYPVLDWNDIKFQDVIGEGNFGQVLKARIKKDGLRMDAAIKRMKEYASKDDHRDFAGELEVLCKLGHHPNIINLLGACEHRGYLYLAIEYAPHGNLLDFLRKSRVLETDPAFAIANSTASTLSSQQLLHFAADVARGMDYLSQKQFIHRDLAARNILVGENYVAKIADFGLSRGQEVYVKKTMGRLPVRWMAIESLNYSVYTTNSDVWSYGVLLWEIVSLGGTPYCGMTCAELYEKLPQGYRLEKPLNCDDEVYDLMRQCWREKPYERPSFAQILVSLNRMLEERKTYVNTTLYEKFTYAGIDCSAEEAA
Sequence of Activated CDC42 kinase 1 (Mus musculus, UniProt O54967) (O54967 whole entry): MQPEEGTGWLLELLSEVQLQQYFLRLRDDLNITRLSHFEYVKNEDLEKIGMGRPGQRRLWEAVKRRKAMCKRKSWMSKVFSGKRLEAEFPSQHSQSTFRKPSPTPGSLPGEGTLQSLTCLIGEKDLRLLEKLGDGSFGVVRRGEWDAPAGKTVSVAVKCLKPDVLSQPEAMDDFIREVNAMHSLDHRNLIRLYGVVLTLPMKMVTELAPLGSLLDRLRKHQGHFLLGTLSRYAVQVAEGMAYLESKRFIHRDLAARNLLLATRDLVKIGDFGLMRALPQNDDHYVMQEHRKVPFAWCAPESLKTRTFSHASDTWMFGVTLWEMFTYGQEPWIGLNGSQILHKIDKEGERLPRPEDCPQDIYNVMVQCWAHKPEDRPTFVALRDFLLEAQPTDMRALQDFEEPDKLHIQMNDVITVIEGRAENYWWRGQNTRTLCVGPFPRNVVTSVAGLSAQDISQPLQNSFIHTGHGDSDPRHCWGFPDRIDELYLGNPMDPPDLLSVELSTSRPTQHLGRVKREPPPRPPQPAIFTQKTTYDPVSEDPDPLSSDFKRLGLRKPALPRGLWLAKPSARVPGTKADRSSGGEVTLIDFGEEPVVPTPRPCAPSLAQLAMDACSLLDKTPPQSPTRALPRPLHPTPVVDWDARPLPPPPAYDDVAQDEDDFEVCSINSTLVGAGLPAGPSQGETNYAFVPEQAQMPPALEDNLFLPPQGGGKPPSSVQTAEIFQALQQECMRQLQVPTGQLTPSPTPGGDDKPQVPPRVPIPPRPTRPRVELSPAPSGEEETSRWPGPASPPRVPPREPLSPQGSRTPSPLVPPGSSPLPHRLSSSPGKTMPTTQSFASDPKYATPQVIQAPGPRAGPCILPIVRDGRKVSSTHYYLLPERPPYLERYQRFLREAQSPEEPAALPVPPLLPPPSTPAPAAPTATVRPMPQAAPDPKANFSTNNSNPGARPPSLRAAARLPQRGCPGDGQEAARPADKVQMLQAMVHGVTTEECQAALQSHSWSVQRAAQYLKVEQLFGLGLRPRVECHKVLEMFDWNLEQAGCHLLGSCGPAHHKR

Broadly, the Ki is a measure of affinity in units of concentration, obtained from inhibition or displacement. In the case of `CN(C)S(=O)(=O)c1ccc(-c2[nH]c3ncnc(NC[C@@H]4CCCO4)c3c2-c2ccccc2)cc1`, the inhibition constant Ki on Activated CDC42 kinase 1 [1] was found to be 2 nM.
On the same count and under the same terms, for `c1ccc(-c2sc3ncnc(NC[C@@H]4CCCO4)c3c2-c2ccccc2)cc1` the value was more than 10000 nM; for `Cc1ccccc1-c1c(-c2ccc(OCCN3CCCC3)cc2)[nH]c2ncnc(NC[C@@H]3CCCO3)c12`, 20 nM; for `O=C1CCCN1CCOc1ccc(-c2oc3ncnc(NC[C@@H]4CCCO4)c3c2-c2ccccc2)cc1`, 4 nM.
On to `CN(C)CCOc1ccc(-c2[nH]c3ncnc(NC[C@@H]4CCCO4)c3c2C2CC2)cc1`, for which the IC50 entry on Activated CDC42 kinase 1 [2] is reported as “Not Active”. For the same molecule, the Ki at Activated CDC42 kinase 1 [1] amounted to 1980 nM.
For `CN(C)C(=O)c1ccc(-c2oc3ncnc(NC[C@@H]4CCCO4)c3c2-c2ccccc2)cc1`, the Ki at Activated CDC42 kinase 1 [1] turned out to be 10 nM.
Regarding `O=C1CCCN1CCOc1ccc(-c2[nH]c3ncnc(NC[C@@H]4CCCO4)c3c2-c2ccccc2)cc1`, on Activated CDC42 kinase 1 [1], the Ki is 4 nM.
Regarding `CNS(=O)(=O)c1ccc(-c2[nH]c3ncnc(NC[C@@H]4CCCO4)c3c2-c2ccccc2)cc1`, the Ki on Activated CDC42 kinase 1 [1] was found to be 2 nM.
Regarding `CN(C)CCOc1ccc(-c2[nH]c3ncnc(NC[C@@H]4CCCO4)c3c2C2=CCCC2)cc1`, the Ki at Activated CDC42 kinase 1 [1] was 20 nM.
In the case of `CN(C)CCOc1ccc(-c2oc3ncnc(NC[C@@H]4CCCCS4)c3c2-c2ccccc2)cc1`, the inhibition constant Ki at Activated CDC42 kinase 1 [1] is 69 nM.
As for `CNC(=O)c1ccc(-c2oc3ncnc(NC[C@@H]4CCCO4)c3c2-c2ccccc2)cc1`, the Ki at Activated CDC42 kinase 1 [1] was found to be 13 nM.
`CN(C)CCOc1ccc(-c2oc3ncnc(NCC4CCCS4)c3c2-c2ccccc2)cc1` (racemic): on Activated CDC42 kinase 1 [1], the inhibitory constant (Ki) came out at 8 nM.
On to `CN(C)C(=O)c1ccc(-c2[nH]c3ncnc(NC[C@@H]4CCCO4)c3c2-c2ccccc2)cc1`, for which the inhibition constant Ki on Activated CDC42 kinase 1 [1] amounted to 2 nM.
As to `CN(C)CCOc1ccc(-c2[nH]c3ncnc(NC[C@@H]4CCCO4)c3c2-c2ccccc2)cc1`, the Ki on Activated CDC42 kinase 1 [1] is 6 nM.
Turning to `c1ccc(-c2oc3nccc(NC[C@@H]4CCCO4)c3c2-c2ccccc2)cc1`, the Ki on Activated CDC42 kinase 1 [1] was 70 nM.
Regarding `CO[C@@H]1CC[C@H]1CNc1ncnc2[nH]c(-c3ccc(OCCN(C)C)cc3)c(-c3ccccc3)c12` (racemic), the inhibition constant (Ki) on Activated CDC42 kinase 1 [1] was determined as 20 nM.
Consider `CS(=O)(=O)c1ccc(-c2oc3ncnc(NC[C@@H]4CCCO4)c3c2-c2ccccc2)cc1`, for which the Ki at Activated CDC42 kinase 1 [1] stood at 8 nM.
For `Nc1ncnc2oc(-c3ccccc3)c(-c3ccccc3)c12`, the Ki at Activated CDC42 kinase 1 [3] came to 1000 nM. In addition, the inhibition result on Activated CDC42 kinase 1 [4] and at Activated CDC42 kinase 1 [5] was “Active” each time.
Turning to `CN(C)CCOc1ccc(-c2oc3ncnc(NCC4SCCS4)c3c2-c2ccccc2)cc1`, the Ki at Activated CDC42 kinase 1 [1] amounted to 0.2 nM.
In the case of `Fc1ccccc1-c1c(-c2ccc(OCCN3CCCC3)cc2)[nH]c2ncnc(NC[C@@H]3CCCO3)c12`, the Ki at Activated CDC42 kinase 1 [1] turned out to be 4 nM.
Turning to `O=C(c1ccc(-c2oc3ncnc(NC[C@@H]4CCCO4)c3c2-c2ccccc2)cc1)N1CCOCC1`, the Ki on Activated CDC42 kinase 1 [1] is 6 nM.
As to `CN(C)CCOc1ccc(-c2oc3ncnc(NCC4SCCCS4)c3c2-c2ccccc2)cc1`, the Ki at Activated CDC42 kinase 1 [1] was 4 nM.
Same read-out and setting: to `COc1ccc(-c2[nH]c3ncnc(NC[C@@H]4CCCO4)c3c2-c2ccccc2)cc1` belongs 6 nM.
Same read-out and setting: to `COc1cccc(-c2c(-c3ccc(OCCN4CCCC4)cc3)[nH]c3ncnc(NC[C@@H]4CCCO4)c23)c1` belongs 10 nM; to `CN(C)CCOc1ccc(-c2oc3ncnc(NCC4OCCO4)c3c2-c2ccccc2)cc1`, 13 nM.
As a reminder, the MRT is a mean duration of stay, worked out from the concentration-time curve. Broadly, the clearance is a measure of how efficiently the substance is removed, as volume per time. Take `CN(C)CCOc1ccc(-c2[nH]c3ncnc(NCC4SCCS4)c3c2-c2ccccc2)cc1`: the Vd in data set [6] was found to be 26.6 L/kg. The Drug metabolism result in [7] and in data set [10] was “Active” in each case. The MRT in [8] was determined as 3.6 h. The clearance in data set [9] is 125 mL/min/kg.
In the case of `c1ccc(-c2c(-c3ccc(OCCN4CCOCC4)cc3)[nH]c3ncnc(NC[C@@H]4CCCO4)c23)cc1`, on Activated CDC42 kinase 1 [1], the inhibitory constant (Ki) came to 6 nM.
`c1ccc(-c2[nH]c3ncnc(NC[C@@H]4CCCO4)c3c2-c2ccccc2)cc1`: on Activated CDC42 kinase 1 [1], the Ki turned out to be 6 nM.
Turning to `CO[C@@H]1CCC[C@H]1CNc1ncnc2[nH]c(-c3ccc(OCCN(C)C)cc3)c(-c3ccccc3)c12`, the Ki on Activated CDC42 kinase 1 [1] was 50 nM.
In the case of `CN(C)CCOc1ccc(-c2[nH]c3ncnc(NC[C@@H]4CC[C@H]4O)c3c2-c2ccccc2)cc1` (racemic), the Ki at Activated CDC42 kinase 1 [1] came out at 30 nM.
Take `CO[C@@H]1CCC[C@@H]1CNc1ncnc2[nH]c(-c3ccc(OCCN(C)C)cc3)c(-c3ccccc3)c12`: on Activated CDC42 kinase 1 [1], the Ki was 50 nM.
Consider `c1ccc(-c2c(-c3ccc(OCCN4CCOCC4)cc3)oc3ncnc(NC[C@@H]4CCCO4)c23)cc1`, for which, on Activated CDC42 kinase 1 [1], the inhibitory constant (Ki) was 4 nM.
In the case of `c1ccc(-c2c(-c3ccc(OCCN4CCCC4)cc3)[nH]c3ncnc(NCC4SCCS4)c23)cc1`, the inhibition constant Ki on Angiopoietin-1 receptor was 200 nM; in [11] it was 380 nM; in data set [12] it was 6.5 nM; on Activated CDC42 kinase 1 [1], 0.3 nM; in data set [13] it was 138 nM. Also, the Vd in data set [6] came to 15.6 L/kg. The MRT in [8] amounted to 2.3 h. In [9], this molecule showed a clearance of 113 mL/min/kg.
Take `c1cncc(-c2c(-c3ccc(OCCN4CCCC4)cc3)[nH]c3ncnc(NC[C@@H]4CCCO4)c23)c1`: at Activated CDC42 kinase 1 [1], the inhibitory constant (Ki) came to 40 nM.
For `CNC(=O)c1ccc(-c2[nH]c3ncnc(NC[C@@H]4CCCO4)c3c2-c2ccccc2)cc1`, the Ki at Activated CDC42 kinase 1 [1] was determined as 3 nM.
As to `CN(C)CCOc1ccc(-c2oc3ncnc(NC[C@@H]4CCCO4)c3c2-c2ccccc2)cc1`, on Activated CDC42 kinase 1 [1], the Ki stood at 5 nM.
For the molecule `O=C(c1ccc(-c2[nH]c3ncnc(NC[C@@H]4CCCO4)c3c2-c2ccccc2)cc1)N1CCOCC1`, the inhibitory constant (Ki) at Activated CDC42 kinase 1 [1] is 6 nM.
Take `c1ccc(-c2nc3ncnc(NC[C@@H]4CCCO4)c3n2-c2ccccc2)cc1`: on Activated CDC42 kinase 1 [1], the Ki is 7300 nM.
With `COc1ccc(-c2oc3ncnc(NC[C@@H]4CCCO4)c3c2-c2ccccc2)cc1`, at Activated CDC42 kinase 1 [1], the inhibition constant Ki was 5 nM.
For `CNS(=O)(=O)c1ccc(-c2oc3ncnc(NC[C@@H]4CCCO4)c3c2-c2ccccc2)cc1`, on Activated CDC42 kinase 1 [1], the inhibition constant (Ki) was 4 nM.
Turning to `c1ccc(-c2c(-c3ccc(OCCN4CCCC4)cc3)[nH]c3ncnc(NC[C@@H]4CCCO4)c23)cc1`, the inhibition constant Ki on Activated CDC42 kinase 1 [1] was found to be 6 nM.
As for `c1ccc(-c2nc3ncnc(NC[C@@H]4CCCO4)n3c2-c2ccccc2)cc1`, at Activated CDC42 kinase 1 [1], the inhibition constant (Ki) was 1800 nM.
On the same count and under the same terms, for `CN(C)CCOc1ccc(-c2[nH]c3ncnc(NC[C@@H]4CCCO4)c3c2C2=CCCCC2)cc1` the value was 10 nM.
Same read-out and setting: to `CS(=O)(=O)c1ccc(-c2[nH]c3ncnc(NC[C@@H]4CCCO4)c3c2-c2ccccc2)cc1` belongs 7 nM.
